Values after ≈ are worked out from the molar mass of the structure shown. Where two headings read alike, the source gives them in different places.
Assays:
[1] = molecular target: T1, neutrophil elastase (Homo sapiens (Human), UniProt P08246); experiment: biochemical; assay type: biochemical
Protocol: Human Neutrophil Elastase Assay
All other materials were of the highest grade commercially available.
The following buffers were used: Compound buffer: 100 mM Tris, 500 mM NaCl, adjusted to pH 7.5; Assay buffer: 100 mM Tris, 500 mM NaCl, adjusted to pH 7.5, containing 0.01% BSA.
Assay conditions: Test compounds were prediluted in DMSO and subsequently in compound buffer (5% DMSO final). […] After inactivation of the enzyme, fluorescence intensities were measured at 380 nm excitation and 460 nm emission wavelengths.
Each plate contains wells with a high value control (DMSO+enzyme+substrate) and wells with a low value control (DMSO+inactivated enzyme+substrate). IC50 values were estimated using a sigmoidal concentration response curve with variable slope. Means of low values were taken as 0%, means of high values as 100%.

[2] = molecular target: T1, neutrophil elastase; experiment: biochemical
[3] = in vitro; assay type: in vitro ADME; settings: human, pH 7.2, 37° C.; for Papp A→B at 10 μM: Caco-2, pH 7.2, Caco-2, apical-to-basal, read-out: PEAB; for Papp B→A at 10 μM: Caco-2, pH 7.2, Caco-2, basal-to-apical, read-out: PEBA
[4] = physchem; assay type: physicochemical; settings: for solubility at 24 h: McIlvaine buffer pH 6.8 containing 2.5% DMSO, pH 6.8, aqueous buffer, kinetic from dmso stock, McIlvaine buffer pH 6.8, 2.5% DMSO
[5] = molecular target: hERG potassium channel (Homo sapiens (Human), UniProt Q12809); experiment: in vitro
[6] = molecular target: cytochrome P450 2C9 (Homo sapiens (Human), UniProt P11712); experiment: biochemical
[7] = molecular target: cytochrome P450 2C19 (Homo sapiens (Human), UniProt P33261); experiment: biochemical
[8] = molecular target: cytochrome P450 2C8 (Homo sapiens (Human), UniProt P10632); experiment: biochemical
[9] = Metabolic stability with human liver microsomes; assay type: in vitro ADME; settings: for half-life at 1 μM: human, pH 7.6, pooled human liver microsomes, read-out: t1/2 INVITRO
[10] = test system: Caco-2 cells; experiment: in vitro; assay type: in vitro ADME; settings: pH 7.2
[11] = pooled human liver microsomes, 1 μM test compound, 37° C.

T1 sequence (P08246 whole entry, looked up): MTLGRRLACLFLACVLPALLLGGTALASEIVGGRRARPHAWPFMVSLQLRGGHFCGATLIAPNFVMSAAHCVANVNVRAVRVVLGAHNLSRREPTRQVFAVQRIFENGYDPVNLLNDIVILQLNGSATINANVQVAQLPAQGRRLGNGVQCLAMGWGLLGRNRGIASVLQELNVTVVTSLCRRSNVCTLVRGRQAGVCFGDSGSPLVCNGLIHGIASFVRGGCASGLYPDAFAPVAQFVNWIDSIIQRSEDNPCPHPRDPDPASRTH
cytochrome P450 2C19, sequence (P33261 whole entry, looked up): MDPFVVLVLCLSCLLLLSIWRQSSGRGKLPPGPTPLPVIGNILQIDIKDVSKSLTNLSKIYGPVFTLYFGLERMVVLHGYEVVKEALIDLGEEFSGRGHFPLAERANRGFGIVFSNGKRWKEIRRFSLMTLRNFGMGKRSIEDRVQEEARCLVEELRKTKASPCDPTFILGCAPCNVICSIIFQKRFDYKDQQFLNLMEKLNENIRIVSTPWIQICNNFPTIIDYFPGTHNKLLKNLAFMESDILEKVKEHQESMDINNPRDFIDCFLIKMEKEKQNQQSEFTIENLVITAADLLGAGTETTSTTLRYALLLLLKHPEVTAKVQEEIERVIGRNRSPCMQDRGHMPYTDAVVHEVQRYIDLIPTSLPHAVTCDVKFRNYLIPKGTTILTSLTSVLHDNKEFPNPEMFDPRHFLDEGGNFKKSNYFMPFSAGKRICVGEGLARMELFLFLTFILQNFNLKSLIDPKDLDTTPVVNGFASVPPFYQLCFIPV
cytochrome P450 2C9, sequence (P11712 whole entry, looked up): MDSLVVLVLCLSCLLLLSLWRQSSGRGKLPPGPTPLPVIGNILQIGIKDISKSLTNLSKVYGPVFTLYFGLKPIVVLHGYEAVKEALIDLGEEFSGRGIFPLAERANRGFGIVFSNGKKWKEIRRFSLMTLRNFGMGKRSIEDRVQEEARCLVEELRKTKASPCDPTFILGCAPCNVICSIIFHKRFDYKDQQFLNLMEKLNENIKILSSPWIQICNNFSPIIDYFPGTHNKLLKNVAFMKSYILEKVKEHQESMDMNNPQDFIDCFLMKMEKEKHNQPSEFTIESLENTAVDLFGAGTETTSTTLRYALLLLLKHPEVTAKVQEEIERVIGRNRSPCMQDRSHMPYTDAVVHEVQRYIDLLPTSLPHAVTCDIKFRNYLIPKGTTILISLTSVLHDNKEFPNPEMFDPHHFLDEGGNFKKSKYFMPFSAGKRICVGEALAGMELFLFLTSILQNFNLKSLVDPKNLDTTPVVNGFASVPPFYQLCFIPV
cytochrome P450 2C8, sequence (P10632 whole entry, looked up): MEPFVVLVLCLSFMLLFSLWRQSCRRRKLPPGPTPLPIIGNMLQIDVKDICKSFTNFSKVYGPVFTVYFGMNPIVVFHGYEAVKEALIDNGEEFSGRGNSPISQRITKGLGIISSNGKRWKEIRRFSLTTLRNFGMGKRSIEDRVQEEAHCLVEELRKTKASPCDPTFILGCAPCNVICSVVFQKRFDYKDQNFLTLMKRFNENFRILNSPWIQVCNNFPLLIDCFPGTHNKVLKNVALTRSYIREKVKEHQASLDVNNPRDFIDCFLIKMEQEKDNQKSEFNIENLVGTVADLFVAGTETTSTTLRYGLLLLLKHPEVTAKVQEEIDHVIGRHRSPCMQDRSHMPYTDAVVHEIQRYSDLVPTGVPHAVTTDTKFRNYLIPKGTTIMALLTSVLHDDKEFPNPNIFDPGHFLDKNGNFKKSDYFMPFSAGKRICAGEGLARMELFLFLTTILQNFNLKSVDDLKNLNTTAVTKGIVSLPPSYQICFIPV

Compound | EC50 [2] [nM] | Papp A→B at 10 μM [3] [×10⁻⁶ cm/s] | Papp B→A at 10 μM [3] [×10⁻⁶ cm/s] | solubility at 24 h [4] [µg/mL] | half-life at 1 μM [9, 11] [h] | IC50 ([1]; read-out: IC50) [nM] | other results
CN1C(=O)N(c2cccc(C(F)(F)F)c2)C2=C(C(=O)CC2)C1c1ccc(C#N)cc1CO (single isomer, unassigned) [Example A.1A, 3-Hydroxymethyl-4-[3-methyl-2,5-dioxo-1-(3-trifluoromethyl-phenyl)-2,3,4,5,6,7-hexahydro-1H-cyclopentapyrimidin-4-yl]-benzonitrile] | 2 | 53 | 98 | 58 (≈ 131 µM) | – | – | IC50 ([1]; IC50): < 1 nM; inhibition at 10 µM [5]: 7%; IC50 [6]: > 50000 nM; IC50 [7]: > 50000 nM; IC50 [8]: > 50000 nM
CN1C(=O)N(c2cccc(C(F)(F)F)c2)C2=C(C(=O)CC2)C1c1ccc(C#N)cc1S(=O)(=O)CCCO (single isomer, unassigned) [Example B.1.3A] | – | 9.9 | 130 | 93 (≈ 174 µM) | 1.52 | – | –
CN1C(=O)N(c2cccc(C(F)(F)F)c2)C2=C(C(=O)CC2)[C@H]1c1ccc(C#N)cc1[S+](C)[O-] (single isomer, unassigned) [Example C.1B, 3-Methanesulfinyl-4-[3-methyl-2,5-dioxo-1-(3-trifluoromethyl-phenyl)-2,3,4,5,6,7-hexahydro-1H-cyclopentapyrimidin-4-yl]-benzonitrile] | 1 | – | 41 | – | – | < 1 | t1/2 INVITRO [9, 11]: 1.55 h; PEAB [10]: 3.7 ×10⁻⁶ cm/s; Aqueous solubility [4]: 61 µg/mL
CC[S+]([O-])c1cc(C#N)ccc1C1C2=C(CCC2=O)N(c2cccc(C(F)(F)F)c2)C(=O)N1C (single isomer, unassigned) [Example C.5.1, 3-Ethanesulfinyl-4-[3-methyl-2,5-dioxo-1-(3-trifluoromethyl-phenyl)-2,3,4,5,6,7-hexahydro-1H-cyclopentapyrimidin-4-yl]-benzonitrile] | – | – | 57 | 86 (≈ 176 µM) | 1.83 | – | PEAB [10]: 7.1 ×10⁻⁶ cm/s
CC[S+]([O-])c1cc(C#N)ccc1C1C2=C(CCC2=O)N(c2cccc(C(F)(F)F)c2)C(=O)N1C (single isomer, unassigned) [Example C.5.2, 3-Ethanesulfinyl-4-[3-methyl-2,5-dioxo-1-(3-trifluoromethyl-phenyl)-2,3,4,5,6,7-hexahydro-1H-cyclopentapyrimidin-4-yl]-benzonitrile] | – | – | – | – | – | – | t1/2 INVITRO [9]: >2.17 h; PEAB [10]: 16 ×10⁻⁶ cm/s; PEBA [10]: 82 ×10⁻⁶ cm/s; Aqueous solubility [4]: 69 µg/mL
CN1C(=O)N(c2ccnc(C(F)(F)F)c2)C2=C(C(=O)CC2)C1c1ccc(C#N)cc1S(C)(=O)=O (single isomer, unassigned) [Example D.1A, 3-Methanesulfonyl-4-[3-methyl-2,5-dioxo-1-(2-trifluoromethyl-pyridin-4-yl)-2,3,4,5,6,7-hexahydro-1H-cyclopentapyrimidin-4-yl]-benzonitrile] | – | 19 | 81 | – | > 2.17 | – | inhibition at 10 µM [5]: 8%
CCS(=O)(=O)c1cc(C#N)ccc1C1C2=C(CCC2=O)N(c2ccnc(C(F)(F)F)c2)C(=O)N1C (single isomer, unassigned) [Example D.3B, 3-Ethanesulfonyl-4-[3-methyl-2,5-dioxo-1-(2-trifluoromethyl-pyridin-4-yl)-2,3,4,5,6,7-hexahydro-1H-cyclopentapyrimidin-4-yl]-benzonitrile] | 1 | 21 | 85 | – | 2 | 1.4 | –
CCNC(=O)N1C(=O)N(c2ccnc(C(F)(F)F)c2)C2=C(C(=O)CC2)C1c1ccc(C#N)cc1S(=O)(=O)CC (single isomer, unassigned) [Example D.4.1A, 4-(4-cyano-2-ethanesulfonyl-phenyl)-2,5-dioxo-1-(2-trifluoromethyl-pyridin-4-yl)-1,2,4,5,6,7-hexahydro-cyclopentapyrimidine-3-carboxylic acid ethylamide] | < 1 | 3.6 | 61 | 81 (≈ 144 µM) | > 2.17 | – | IC50 ([1]; IC50): < 1 nM
CCS(=O)(=O)c1cc(C#N)ccc1C1NC(=O)N(c2cccc(C(F)F)c2)C2=C1C(=O)CC2 (single isomer, unassigned) [Example D.5A, 4-[1-(3-Difluoromethyl-phenyl)-2,5-dioxo-2,3,4,5,6,7-hexahydro-1H-cyclopentapyrimidin-4-yl]-3-ethanesulfonyl-benzonitrile] | 1 | 7.5 | 78 | 67 (≈ 142 µM) | > 2.17 | – | IC50 ([1]; IC50): 2.2 nM
CNC(=O)N1C(=O)N(c2cc(C(F)(F)F)ccn2)C2=C(C(=O)CC2)C1c1ccc(C#N)cc1S(C)(=O)=O (centres unmarked) [D.4.4] | 2 | 3.1 | 60 | – | > 2.17 | < 1 | –
CCNC(=O)N1C(=O)N(c2cc(C(F)(F)F)ccn2)C2=C(C(=O)CC2)C1c1ccc(C#N)cc1S(C)(=O)=O (centres unmarked) [D.4.5] | 1 | 7.3 | 67 | 78 (≈ 142 µM) | > 2.17 | < 1 | –
CN1C(=O)N(c2cccc(C(F)(F)F)c2)C2=C(C(=O)CC2)C1c1ccc(C#N)cc1C(C)(C)O (centres unmarked) [Example A.2, 3-(1-Hydroxy-1-methyl-ethyl)-4-[3-methyl-2,5-dioxo-1-(3-trifluoromethyl-phenyl)-2,3,4,5,6,7-hexahydro-1H-cyclopentapyrimidin-4-yl]-benzonitrile] | 1 | 92 | 80 | – | > 2.17 | < 1 | –
CC(O)c1cc(C#N)ccc1C1C2=C(CCC2=O)N(c2cccc(C(F)(F)F)c2)C(=O)N1C (centres unmarked) [Example A.3, 3-(1-Hydroxy-ethyl)-4-[3-methyl-2,5-dioxo-1-(3-trifluoromethyl-phenyl)-2,3,4,5,6,7-hexahydro-1H-cyclopentapyrimidin-4-yl]-benzonitrile] | – | 67 | 87 | 65 (≈ 143 µM) | > 2.17 | – | –
CN1C(=O)N(c2cccc(C(F)(F)F)c2)C2=C(C(=O)CC2)[C@H]1c1ccc(C#N)cc1S(=O)(=O)CCO [Example B.1.2B] | 1 | 12 | 120 | 73 (≈ 141 µM) | > 2.17 | – | IC50 ([1]; IC50): < 1 nM; inhibition at 10 µM [5]: 12%; IC50 [6]: > 50000 nM; IC50 [7]: > 50000 nM; IC50 [8]: > 50000 nM
CCS(=O)(=O)c1cc(C#N)ccc1C1C2=C(CCC2=O)N(c2cccc(C(F)F)c2)C(=O)N1C(=O)NC (centres unmarked) [Example D.7, 4-(4-Cyano-2-ethanesulfonyl-phenyl)-1-(3-difluoromethyl-phenyl)-2,5-dioxo-1,2,4,5,6,7-hexahydro-cyclopentapyrimidine-3-carboxylic acid methylamide] | – | – | – | – | – | < 1 | –
CS(=O)(=O)c1cc(C#N)ccc1C1C2=C(CCC2=O)N(c2cccc(C(F)(F)F)c2)C(=O)N1CCO (centres unmarked) [Example E.1, 4-[3-(2-Hydroxy-ethyl)-2,5-dioxo-1-(3-trifluoromethyl-phenyl)-2,3,4,5,6,7-hexahydro-1H-cyclopentapyrimidin-4-yl]-3-methanesulfonyl-benzonitrile] | – | – | – | – | – | – | IC50 ([1]; Neutrophil Elastase assay, substrate MeOSuc-Ala-Ala-Pro-Val-AMC, read-out: IC50): < 1 nM

From patent US9475779B2, “Substituted bicyclic dihydropyrimidinones and their use as inhibitors of neutrophil elastase activity” (priority 2014, dated 2016)
